Experimental data taken from patent publication US20100272773A1, “Use of Drug Polymorphs to Achieve Controlled Drug Delivery From a Coated Medical Device” (BOSTON SCIENTIFIC SCIMED, INC., priority 2009, published 2010).

Experiment: Calculated time for complete dissolution of Ptx transferred to the vessel
Type: physicochemical
Conditions: ~23 μg Ptx transferred to vessel divided by dissolution rate
Excerpt: The ability to control the Ptx morphology on a drug coated balloon is important in achieving proper dosing. This is illustrated by the following example. […] Other factors such as particle size will also influence dissolution.

Structure (SMILES) | Time for complete dissolution of the Ptx | Time for complete dissolution
CC(=O)O[C@H]1C(=O)[C@@]2(C)[C@H]([C@H](OC(=O)c3ccccc3)[C@]3(O)C[C@H](OC(=O)[C@H](O)[C@@H](NC(=O)c4ccccc4)c4ccccc4)C(C)=C1C3(C)C)[C@]1(OC(C)=O)CO[C@@H]1C[C@@H]2O [PTx Anhydrous Crystal, paclitaxel] | about 1 day | 
CC(=O)O[C@H]1C(=O)[C@@]2(C)[C@H]([C@H](OC(=O)c3ccccc3)[C@]3(O)C[C@H](OC(=O)[C@H](O)[C@@H](NC(=O)c4ccccc4)c4ccccc4)C(C)=C1C3(C)C)[C@]1(OC(C)=O)CO[C@@H]1C[C@@H]2O [PTx 2H2O Crystalline, paclitaxel] |  | about 10 days
